Patent US20240043427A1 (Gilead Sciences, Inc., priority 2020, published 2024)
pEC50, pIC50: −log10 of the molar value.

Legend:
CD73 [1] = biological target: T1, CD73 (Homo sapiens (Human), UniProt P21589); experiment: MDA-MB-231 Cell Based CD73 Activity Assay (DMEM); conditions: MDA-MB-231-GFP cells, DMEM medium with 10% human plasma, 200 uM AMP
CD73 [2] = biological target: T1, CD73; assay type: biochemical; conditions: 1 mM NaH2PO4 in enzyme buffer, CD73 0.3 nM, AMP 15 uM

T1 sequence (P21589 27-574): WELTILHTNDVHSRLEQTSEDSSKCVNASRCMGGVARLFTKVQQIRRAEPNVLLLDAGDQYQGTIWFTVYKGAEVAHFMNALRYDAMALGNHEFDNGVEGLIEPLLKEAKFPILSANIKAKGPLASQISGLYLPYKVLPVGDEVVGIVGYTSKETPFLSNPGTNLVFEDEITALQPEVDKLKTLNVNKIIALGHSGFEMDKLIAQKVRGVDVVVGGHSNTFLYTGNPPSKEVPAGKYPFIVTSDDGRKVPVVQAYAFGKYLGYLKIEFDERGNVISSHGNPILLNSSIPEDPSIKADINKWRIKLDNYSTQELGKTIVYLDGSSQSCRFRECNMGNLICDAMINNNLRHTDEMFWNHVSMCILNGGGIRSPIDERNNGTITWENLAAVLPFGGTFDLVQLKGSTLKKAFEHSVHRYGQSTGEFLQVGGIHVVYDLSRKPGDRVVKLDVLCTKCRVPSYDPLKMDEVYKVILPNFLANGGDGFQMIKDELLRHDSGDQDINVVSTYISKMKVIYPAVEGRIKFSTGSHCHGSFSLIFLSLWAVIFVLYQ

| Structure (SMILES) | pEC50 (CD73 [1]) | pIC50 (CD73 [2]) |
| --- | --- | --- |
| O=c1[nH]cc(-c2cc(N3CC4CCCCC43)c3nccn3n2)c(=O)[nH]1 (centres unmarked) [Example 451, 5-(8-(7-azabicyclo[4.2.0]octan-7-yl)imidazo[1,2-b]pyridazin-6-yl)pyrimidine-2,4(1H,3H)-dione] | 6.78 | 7.17 |
| O=c1[nH]cc(-c2cc(N3CC[C@H](CC(F)F)C3)c3nccn3n2)c(=O)[nH]1 [Example 454, (R)-5-(8-(3-(2,2-difluoroethyl)pyrrolidin-1-yl)imidazo[1,2-b]pyridazin-6-yl)pyrimidine-2,4(1H,3H)-dione] | 7.30 | 7.54 |
| O=c1[nH]cc(-c2cc(N3CC(F)(C(F)(F)F)C3)c3ncc(Cl)n3n2)c(=O)[nH]1 [Example 455, 5-(3-chloro-8-(3-fluoro-3-(trifluoromethyl)azetidin-1-yl)imidazo[1,2-b]pyridazin-6-yl)pyrimidine-2,4(1H,3H)-dione] | 7.34 | 7.83 |
| O=c1[nH]cc(-c2cc([C@H]3C[C@@H]3c3ccc4cnn(CC(F)(F)F)c4c3)n3nccc3n2)c(=O)[nH]1 [Example 456, 5-(7-((1S,2S)-2-(1-(2,2,2-trifluoroethyl)-1H-indazol-6-yl)cyclopropyl)pyrazolo[1,5-a]pyrimidin-5-yl)pyrimidine-2,4(1H,3H)-dione] | 9.82 | 9.28 |
| CC(C)NC(=O)CCC(F)(F)COc1cc(-c2c[nH]c(=O)[nH]c2=O)nn2ccnc12 [Example 457, 5-((6-(2,4-dioxo-1,2,3,4-tetrahydropyrimidin-5-yl)imidazo[1,2-b]pyridazin-8-yl)oxy)-4,4-difluoro-N-isopropylpentanamide] | 8.01 | 8.45 |
| O=C(CCC(F)(F)COc1cc(-c2c[nH]c(=O)[nH]c2=O)nn2ccnc12)NCC(F)(F)F [Example 458, 5-((6-(2,4-dioxo-1,2,3,4-tetrahydropyrimidin-5-yl)imidazo[1,2-b]pyridazin-8-yl)oxy)-4,4-difluoro-N-(2,2,2-trifluoroethyl)pentanamide] | 7.88 | 8.39 |
| O=c1[nH]cc(-c2cc([C@H]3C[C@@H]3c3ccc4c(Cl)nn(CC(F)(F)F)c4c3)c3nccn3n2)c(=O)[nH]1 [Example 459, 5-(8-((1S,2S)-2-(3-chloro-1-(2,2,2-trifluoroethyl)-1H-indazol-6-yl)cyclopropyl)imidazo[1,2-b]pyridazin-6-yl)pyrimidine-2,4(1H,3H)-dione] | 9.42 | 9.12 |
| O=c1[nH]cc(-c2cc([C@H]3C[C@@H]3c3cc(Cl)c4cnn(CC(F)(F)F)c4c3)c3nccn3n2)c(=O)[nH]1 [Example 460, 5-(8-((1S,2S)-2-(4-chloro-1-(2,2,2-trifluoroethyl)-1H-indazol-6-yl)cyclopropyl)imidazo[1,2-b]pyridazin-6-yl)pyrimidine-2,4(1H,3H)-dione] | 9.42 | 9.34 |
| N#Cc1ccc([C@H]2C[C@@H]2c2cc(-c3c[nH]c(=O)[nH]c3=O)nn3ccnc23)cc1 [Example 465, 4-((1S,2S)-2-(6-(2,4-dioxo-1,2,3,4-tetrahydropyrimidin-5-yl)imidazo[1,2-b]pyridazin-8-yl)cyclopropyl)benzonitrile] | 8.49 | 9.07 |
| N#Cc1ccc([C@H]2C[C@@H]2c2cc(-c3c[nH]c(=O)[nH]c3=O)nn3ccnc23)cc1F [Example 467, 4-((1S,2S)-2-(6-(2,4-dioxo-1,2,3,4-tetrahydropyrimidin-5-yl)imidazo[1,2-b]pyridazin-8-yl)cyclopropyl)-2-fluorobenzonitrile] | 8.41 | 9.07 |
| O=c1[nH]cc(-c2cc([C@H]3C[C@@H]3c3ccc(F)cc3F)n3nccc3n2)c(=O)[nH]1 [Example 469, 5-(7-((1S,2S)-2-(2,4-difluorophenyl)cyclopropyl)pyrazolo[1,5-a]pyrimidin-5-yl)pyrimidine-2,4(1H,3H)-dione] | 7.82 | 8.76 |
| O=c1[nH]cc(-c2cc([C@H]3C[C@@H]3c3ccc4cnn(CC(F)(F)F)c4c3)c3ncc(Cl)n3n2)c(=O)[nH]1 [Example 470, 5-(3-chloro-8-((1S,2S)-2-(1-(2,2,2-trifluoroethyl)-1H-indazol-6-yl)cyclopropyl)imidazo[1,2-b]pyridazin-6-yl)pyrimidine-2,4(1H,3H)-dione] | 9.89 | 9.64 |
| O=c1[nH]cc(-c2cc(N3C[C@@H](F)[C@@H](F)C3)n3ncnc3n2)c(=O)[nH]1 [Example 472, 5-(7-((3R,4S)-3,4-difluoropyrrolidin-1-yl)-[1,2,4]triazolo[1,5-a]pyrimidin-5-yl)pyrimidine-2,4(1H,3H)-dione] | 7.23 | 7.81 |
| COC1CN(c2cc(-c3c[nH]c(=O)[nH]c3=O)nn3ccnc23)CC1(F)F (centres unmarked) [Example 473, 5-(8-(3,3-difluoro-4-methoxypyrrolidin-1-yl)imidazo[1,2-b]pyridazin-6-yl)pyrimidine-2,4(1H,3H)-dione] | 7.74 | 8.24 |
| COC1CN(c2cc(-c3c[nH]c(=O)[nH]c3=O)nn3c(F)cnc23)CC1(F)F (centres unmarked) [Example 474, 5-(8-(3,3-difluoro-4-methoxypyrrolidin-1-yl)-3-fluoroimidazo[1,2-b]pyridazin-6-yl)pyrimidine-2,4(1H,3H)-dione] | 7.57 | 8.13 |
| CC(C)Cc1cn2nc(-c3c[nH]c(=O)[nH]c3=O)cc(N3CC(F)(F)C4(CC4)C3)c2n1 [Example 475, 5-(8-(7,7-difluoro-5-azaspiro[2.4]heptan-5-yl)-2-isobutylimidazo[1,2-b]pyridazin-6-yl)pyrimidine-2,4(1H,3H)-dione] | 6.03 | 7.49 |

| Structure (SMILES) | pEC50 (CD73 [1]) | pIC50 (CD73 [2]) |
| --- | --- | --- |
| O=c1[nH]cc(-c2cc(N3C[C@H]4CC[C@H]4C3)c3nccn3n2)c(=O)[nH]1 [Example 476, 5-(8-(cis-3-azabicyclo[3.2.0]heptan-3-yl)imidazo[1,2-b]pyridazin-6-yl)pyrimidine-2,4(1H,3H)-dione] | 7.49 | 7.41 |
| COC[C@@H]1CCCN1c1cc(-c2c[nH]c(=O)[nH]c2=O)nn2ccnc12 [Example 477, (S)-5-(8-(2-(methoxymethyl)pyrrolidin-1-yl)imidazo[1,2-b]pyridazin-6-yl)pyrimidine-2,4(1H,3H)-dione] | 6.02 | < 6.60 |
| O=c1[nH]cc(-c2cc(N3CC4CCC4(F)C3)c3nccn3n2)c(=O)[nH]1 (centres unmarked) [Example 478, 5-(8-(1-fluoro-3-azabicyclo[3.2.0]heptan-3-yl)imidazo[1,2-b]pyridazin-6-yl)pyrimidine-2,4(1H,3H)-dione] | 7.27 | 7.49 |
| CC1CN(c2cc(-c3c[nH]c(=O)[nH]c3=O)nn3ccnc23)CC1(F)F (centres unmarked) [Example 479, 5-(8-(3,3-difluoro-4-methylpyrrolidin-1-yl)imidazo[1,2-b]pyridazin-6-yl)pyrimidine-2,4(1H,3H)-dione] | 8.04 | 8.59 |
| O=C1CCN(c2cc(-c3c[nH]c(=O)[nH]c3=O)nn3ccnc23)N1 [Example 480, 5-(8-(3-oxopyrazolidin-1-yl)imidazo[1,2-b]pyridazin-6-yl)pyrimidine-2,4(1H,3H)-dione] | 5.72 | < 6.60 |
| O=c1[nH]cc(-c2cc(N3CC(F)(F)C3)c3nccn3n2)c(=O)[nH]1 [Example 481, 5-(8-(3,3-difluoroazetidin-1-yl)imidazo[1,2-b]pyridazin-6-yl)pyrimidine-2,4(1H,3H)-dione] | 7.35 | 7.58 |
| O=C1CN(c2cc(-c3c[nH]c(=O)[nH]c3=O)nn3ccnc23)CCN1Cc1ccc(F)cc1 [Example 482, 5-(8-(4-(4-fluorobenzyl)-3-oxopiperazin-1-yl)imidazo[1,2-b]pyridazin-6-yl)pyrimidine-2,4(1H,3H)-dione] | 5.91 | < 6.60 |
| O=c1[nH]cc(-c2cc(N3CCCCCC3)c3nccn3n2)c(=O)[nH]1 [Example 483, 5-(8-(azepan-1-yl)imidazo[1,2-b]pyridazin-6-yl)pyrimidine-2,4(1H,3H)-dione] | 6.25 | < 6.60 |
| CC1CCN(c2cc(-c3c[nH]c(=O)[nH]c3=O)nn3ccnc23)CCC1(F)F (centres unmarked) [Example 484, 5-(8-(4,4-difluoro-5-methylazepan-1-yl)imidazo[1,2-b]pyridazin-6-yl)pyrimidine-2,4(1H,3H)-dione] | 6.75 | 7.16 |
| CC(C)(O)CCNc1cc(-c2c[nH]c(=O)[nH]c2=O)nn2ccnc12 [Example 485, 5-(8-((3-hydroxy-3-methylbutyl)amino)imidazo[1,2-b]pyridazin-6-yl)pyrimidine-2,4(1H,3H)-dione] | 6.15 | < 6.60 |
| O=c1[nH]cc(-c2cc(NCCCc3ccccc3)c3nccn3n2)c(=O)[nH]1 [Example 486, 5-(8-((3-phenylpropyl)amino)imidazo[1,2-b]pyridazin-6-yl)pyrimidine-2,4(1H,3H)-dione] | 6.00 | < 6.60 |
| O=c1[nH]cc(-c2cc(NCCc3ccccc3)c3nccn3n2)c(=O)[nH]1 [Example 487, 5-(8-(phenethylamino)imidazo[1,2-b]pyridazin-6-yl)pyrimidine-2,4(1H,3H)-dione] | 7.09 | 7.56 |
| CC(C)(C)OC(=O)N1CC2(C1)CN(c1cc(-c3c[nH]c(=O)[nH]c3=O)nn3ccnc13)CC2(F)F [Example 488, tert-butyl 6-(6-(2,4-dioxo-1,2,3,4-tetrahydropyrimidin-5-yl)imidazo[1,2-b]pyridazin-8-yl)-8,8-difluoro-2,6-diazaspiro[3.4]octane-2-carboxylate] | 7.89 | 7.77 |
| O=c1[nH]cc(-c2cc(NCCc3cccc(C(F)(F)F)c3)c3nccn3n2)c(=O)[nH]1 [Example 489, 5-(8-((3-(trifluoromethyl)phenethyl)amino)imidazo[1,2-b]pyridazin-6-yl)pyrimidine-2,4(1H,3H)-dione] | 5.78 | < 6.60 |
| O=c1[nH]cc(-c2cc(NCCc3cccc(Cl)c3)c3nccn3n2)c(=O)[nH]1 [Example 490, 5-(8-((3-chlorophenethyl)amino)imidazo[1,2-b]pyridazin-6-yl)pyrimidine-2,4(1H,3H)-dione] | 6.33 | 7.02 |
